From patent publication US20230382925A1, “MODULATORS OF CYSTIC FIBROSIS TRANSMEMBRANE CONDUCTANCE REGULATOR” (VERTEX PHARMACEUTICALS INCORPORATED, priority 2020, published 2023)

Tests used:
[1] = target: CFTR (Homo sapiens, UniProt P13569); test: standard Ussing Chamber Assay for CFTR potentiator activity; assay type: cell-based
Method: tert-Butyl N-[(6R,12R)-6-benzyloxy-12-methyl-6,15-bis(trifluoromethyl)-13,19-dioxa-3,4,18-triazatricyclo[12.3.1.12,5]nonadeca-1(18),2,4,14,16-pentaen-17-yl]-N-tert-butoxycarbonyl-carbamate (8.6 g, 11.77 mmol) was dissolved in ethanol (172 mL) then the flask was cycled 3 times between vacuum/nitrogen. Treated the mixture with 10% Pd/C (50% water wet, 1.8 g of 5% w/w, 0.8457 mmol) then cycled 3 times between vacuum/nitrogen and 3 times between vacuum/hydrogen and then stirred vigorously under hydrogen (balloon) at room temperature for 18 h. The mixture was cycled 3 times between vacuum/nitrogen, filtered over Celite washing with ethanol and then the filtrate was evaporated to give 7.3 g of tert-butyl N-tert-butoxycarbonyl-N-[(6R,12R)-6-hydroxy-12-methyl-6,15-bis(trifluoromethyl)-13,19-dioxa-3,4,18-triazatricyclo[12.3.1.12,5]nonadeca-1(18),2,4,14,16-pentaen-17-yl]carbamate an off-white solid. 1H NMR and MS confirmed the expected product. CFTR modulatory activity was confirmed using a standard Ussing Chamber Assay for CFTR potentiator activity.

[2] = target: T1, CFTR (Homo sapiens, UniProt P13569, DEL508-508); test: HBE2 assay: Ussing chamber assay of CFTR-mediated short-circuit currents (F508del/MF-HBE, with 44 nM potentiator); assay type: cell-based; conditions: F508del/MF-HBE cells; single fixed concentration 3 μM with 44 nM (6R,12R)-17-amino-12-methyl-6,15-bis(trifluoromethyl)-...-pentaen-6-ol, 18-24 hours, 20% human serum
T1 construct: human bronchial epithelial (HBE) cells derived from CF subjects heterozygous for F508del; endogenous in cells; host or cells: primary human bronchial epithelial cells from CF subjects (F508del/MF-HBE)
T1 sequence (P13569 with tags, fused parts or gaps DEL508-508): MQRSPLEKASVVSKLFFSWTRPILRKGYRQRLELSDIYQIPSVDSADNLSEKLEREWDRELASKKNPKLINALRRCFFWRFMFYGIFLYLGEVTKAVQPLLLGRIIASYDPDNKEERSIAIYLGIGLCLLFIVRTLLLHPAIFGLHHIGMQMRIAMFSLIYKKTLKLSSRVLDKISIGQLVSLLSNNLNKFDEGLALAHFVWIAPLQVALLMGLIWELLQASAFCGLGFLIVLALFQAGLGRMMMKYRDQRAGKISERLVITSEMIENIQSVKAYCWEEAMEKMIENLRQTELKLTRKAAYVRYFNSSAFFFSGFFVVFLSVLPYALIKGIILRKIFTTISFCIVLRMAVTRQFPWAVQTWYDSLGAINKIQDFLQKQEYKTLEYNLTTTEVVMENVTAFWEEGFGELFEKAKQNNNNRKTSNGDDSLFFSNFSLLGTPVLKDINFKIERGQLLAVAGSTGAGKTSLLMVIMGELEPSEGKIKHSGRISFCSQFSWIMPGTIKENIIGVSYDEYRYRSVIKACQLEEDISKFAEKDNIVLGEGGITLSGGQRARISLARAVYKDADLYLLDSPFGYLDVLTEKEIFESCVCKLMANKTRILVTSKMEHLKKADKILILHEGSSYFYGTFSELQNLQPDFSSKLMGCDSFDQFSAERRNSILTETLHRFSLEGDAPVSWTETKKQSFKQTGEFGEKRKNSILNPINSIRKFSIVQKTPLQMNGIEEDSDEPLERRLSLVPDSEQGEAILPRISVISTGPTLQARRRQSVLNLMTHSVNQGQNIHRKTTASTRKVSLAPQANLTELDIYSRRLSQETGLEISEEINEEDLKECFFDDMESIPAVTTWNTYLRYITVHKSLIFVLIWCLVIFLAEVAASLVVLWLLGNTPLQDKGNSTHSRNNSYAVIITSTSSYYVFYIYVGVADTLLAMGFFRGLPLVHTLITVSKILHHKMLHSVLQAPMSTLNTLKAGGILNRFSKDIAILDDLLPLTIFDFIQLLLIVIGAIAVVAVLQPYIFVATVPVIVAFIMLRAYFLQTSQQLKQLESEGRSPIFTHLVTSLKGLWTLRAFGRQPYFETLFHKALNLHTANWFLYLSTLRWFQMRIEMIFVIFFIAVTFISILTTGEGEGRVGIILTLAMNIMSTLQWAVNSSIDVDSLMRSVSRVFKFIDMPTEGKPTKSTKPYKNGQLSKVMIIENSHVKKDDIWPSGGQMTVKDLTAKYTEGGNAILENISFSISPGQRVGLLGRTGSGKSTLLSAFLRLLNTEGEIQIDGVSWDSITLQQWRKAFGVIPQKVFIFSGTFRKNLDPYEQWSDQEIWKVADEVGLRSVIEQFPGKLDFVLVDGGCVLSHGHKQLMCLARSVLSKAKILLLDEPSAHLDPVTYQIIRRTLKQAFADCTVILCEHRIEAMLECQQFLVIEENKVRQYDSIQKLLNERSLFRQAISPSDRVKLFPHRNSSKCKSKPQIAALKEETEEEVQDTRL
Method: 1. Ussing Chamber Assay of CFTR-mediated Short-circuit Currents
Ussing chamber experiments were performed using human bronchial epithelial (HBE) cells derived from CF subjects heterozygous for F508del and a minimal function CFTR mutation (F508del/MF-HBE) and cultured as previously described (Neuberger T, Burton B, Clark H, Van Goor F Methods Mol Biol 2011:741:39-54). After four days the apical media was removed, and the cells were grown at an air liquid interface for >14 days prior to use.
To isolate the CFTR-mediated short-circuit (ISC) current, F508del/MF-HBE grown on Costar® Snapwell™ cell culture inserts were mounted in an Ussing chamber and the transepithelial ISC was measured under voltage-clamp recording conditions (Vhold=0 mV) at 37° C. The basolateral solution contained (in mM) 145 NaCl, 0.83 K2HPO4, 3.3 KH2PO4, 1.2l MgCl2, 1.2 CaCl2), 10 Glucose, 10 HEPES (pH adjusted to 7.4 with NaOH) and the apical solution contained (in mM) 145 NaGluconate, 1.2 MgCl2, 1.2 CaCl2), 10 glucose, 10 HEPES (pH adjusted to 7.4 with NaOH) and 30 μM amiloride to block the epithelial sodium channel. […] The CFTR-mediated ISC (μA/cm^2) for each condition was determined from the peak forskolin response to the steady-state current following inhibition. […]
The activity of the CFTR corrector compounds on the CFTR-mediated ISC was determined in Ussing chamber studies as described above. […]

CFTR (Homo sapiens, UniProt P13569), sequence (P13569 whole entry, species assumed): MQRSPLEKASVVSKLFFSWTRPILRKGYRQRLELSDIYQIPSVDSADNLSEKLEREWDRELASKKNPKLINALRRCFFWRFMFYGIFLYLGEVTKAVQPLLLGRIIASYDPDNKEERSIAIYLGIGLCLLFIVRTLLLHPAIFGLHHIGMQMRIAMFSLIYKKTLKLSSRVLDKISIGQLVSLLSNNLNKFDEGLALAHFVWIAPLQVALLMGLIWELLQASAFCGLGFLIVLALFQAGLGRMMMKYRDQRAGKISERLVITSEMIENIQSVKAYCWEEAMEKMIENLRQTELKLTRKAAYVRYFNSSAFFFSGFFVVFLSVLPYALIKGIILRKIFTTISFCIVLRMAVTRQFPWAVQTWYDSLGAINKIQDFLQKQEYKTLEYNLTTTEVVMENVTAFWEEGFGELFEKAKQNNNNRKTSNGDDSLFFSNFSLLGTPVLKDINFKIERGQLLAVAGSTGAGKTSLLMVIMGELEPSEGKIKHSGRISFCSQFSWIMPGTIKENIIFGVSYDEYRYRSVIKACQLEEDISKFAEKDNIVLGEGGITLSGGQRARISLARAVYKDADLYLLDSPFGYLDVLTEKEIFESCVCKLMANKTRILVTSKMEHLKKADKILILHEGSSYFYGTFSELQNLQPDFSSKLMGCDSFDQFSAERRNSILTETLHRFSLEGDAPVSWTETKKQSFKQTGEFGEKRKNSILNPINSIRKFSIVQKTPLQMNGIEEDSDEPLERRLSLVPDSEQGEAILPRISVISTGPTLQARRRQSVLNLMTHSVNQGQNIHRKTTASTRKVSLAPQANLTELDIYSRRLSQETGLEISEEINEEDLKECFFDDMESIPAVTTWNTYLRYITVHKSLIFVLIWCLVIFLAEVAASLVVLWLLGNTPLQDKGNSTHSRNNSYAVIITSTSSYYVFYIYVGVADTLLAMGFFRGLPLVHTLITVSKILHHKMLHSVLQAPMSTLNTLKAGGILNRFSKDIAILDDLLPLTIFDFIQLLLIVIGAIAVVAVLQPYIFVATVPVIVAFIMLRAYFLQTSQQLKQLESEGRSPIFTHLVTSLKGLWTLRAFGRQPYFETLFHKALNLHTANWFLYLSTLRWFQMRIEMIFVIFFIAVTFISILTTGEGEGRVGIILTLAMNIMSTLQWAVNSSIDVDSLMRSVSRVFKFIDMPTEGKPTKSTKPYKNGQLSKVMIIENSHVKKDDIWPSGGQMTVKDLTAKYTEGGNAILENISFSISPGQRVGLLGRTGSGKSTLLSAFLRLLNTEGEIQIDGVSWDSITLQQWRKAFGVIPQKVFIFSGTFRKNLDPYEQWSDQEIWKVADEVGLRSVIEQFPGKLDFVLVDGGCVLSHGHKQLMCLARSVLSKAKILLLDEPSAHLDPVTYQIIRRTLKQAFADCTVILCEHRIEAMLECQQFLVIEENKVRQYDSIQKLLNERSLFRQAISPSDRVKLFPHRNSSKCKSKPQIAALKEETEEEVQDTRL

| CFTR modulatory activity (potentiator activity) [1] | HBE2 Activity at 3 μM [2] | SMILES |
| --- | --- | --- |
| confirmed | – | C[C@@H]1CCCCC[C@](O)(C(F)(F)F)C2=NN=C(O2)c2nc(c(C(F)(F)F)cc2N)O1 [(6R,12R)-17-amino-12-methyl-6,15-bis(trifluoromethyl)-13,19-dioxa-3,4,18-triazatricyclo[12.3.1.12,5] nonadeca-1(18),2,4,14,16-pentaen-6-ol] |
| – | +++ (+++ is >60%) | Cc1cccc(C)c1-c1cc2nc(n1)NS(=O)(=O)c1cccc(c1)C(=O)N(C1CCN(C)C1=O)[C@H](CC(C)(C)C)CO2 (stereo partly drawn) [Compound 508, (11R)-6-(2,6-Dimethylphenyl)-11-(2,2-dimethylpropyl)-12-(1-methyl-2-oxo-pyrrolidin-3-yl)-2,2-dioxo-9-oxa-2λ^6-thia-3,5,12,19-tetrazatricyclo[12.3.1.14,8]nonadeca-1(18),4(19),5,7,14,16-hexaen-13-one] |
| – | +++ (+++ is >60%) | Cc1cccc(C)c1-c1cc2nc(n1)NS(=O)(=O)c1cccc(c1)C(=O)N(C1CCCN(C)C1=O)[C@H](CC(C)(C)C)CO2 (stereo partly drawn) [Compound 507, (11R)-6-(2,6-Dimethylphenyl)-11-(2,2-dimethylpropyl)-12-(1-methyl-2-oxo-3-piperidyl)-2,2-dioxo-9-oxa-2λ^6-thia-3,5,12,19-tetrazatricyclo[12.3.1.14,8]nonadeca-1(18),4(19),5,7,14,16-hexaen-13-one] |
